Reference: PMC4648982 (Chemistry Central Journal, 2015)
“Also recorded” adds a separate entry of the source. Structures can show the parent of a compound that is named as a salt.

Biological target: jack bean urease (Canavalia ensiformis, UniProt P07374)
Test: biochemical
Conditions: not given
Procedure: Reaction mixture comprising of 25μL of enzyme (jack bean urease) (1 unit/well) solution and 55 μL of phosphate buffers (4 mM) containing 100 mM urea were incubated with 5 μL of test compounds dissolved in methanol (0.5 mM concentration) at 30 °C for 15 min in 96-well plates. Urease activity was determined by measuring ammonia production using the indophenol method as described by Weather burn. Briefly, 45 μl each phenol reagent (1 % w/v phenol and 0.005 % w/v sodium nitroprussside) and 70 μL of alkali reagent(0.5 % w/v NaOH and 0.1 % active chloride NaOCl) were added to each well. The increasing absorbance at 630 nm was measured afther 50 min, using a microplate reader (Molecular Device, USA). All reactions were performed in triplicate in a final volume of 200 μL. The results (change in absorbance per min) were processed by using softMax Pro software (molecular Device, USA). The entire assays were performed at pH 6.8. Percentage inhibitions were calculated from the formula 100 − (ODtestwell/ODcontrol) × 100. Thiourea was used as the standard inhibitor of urease.

Chain of jack bean urease (P07374 whole entry, looked up): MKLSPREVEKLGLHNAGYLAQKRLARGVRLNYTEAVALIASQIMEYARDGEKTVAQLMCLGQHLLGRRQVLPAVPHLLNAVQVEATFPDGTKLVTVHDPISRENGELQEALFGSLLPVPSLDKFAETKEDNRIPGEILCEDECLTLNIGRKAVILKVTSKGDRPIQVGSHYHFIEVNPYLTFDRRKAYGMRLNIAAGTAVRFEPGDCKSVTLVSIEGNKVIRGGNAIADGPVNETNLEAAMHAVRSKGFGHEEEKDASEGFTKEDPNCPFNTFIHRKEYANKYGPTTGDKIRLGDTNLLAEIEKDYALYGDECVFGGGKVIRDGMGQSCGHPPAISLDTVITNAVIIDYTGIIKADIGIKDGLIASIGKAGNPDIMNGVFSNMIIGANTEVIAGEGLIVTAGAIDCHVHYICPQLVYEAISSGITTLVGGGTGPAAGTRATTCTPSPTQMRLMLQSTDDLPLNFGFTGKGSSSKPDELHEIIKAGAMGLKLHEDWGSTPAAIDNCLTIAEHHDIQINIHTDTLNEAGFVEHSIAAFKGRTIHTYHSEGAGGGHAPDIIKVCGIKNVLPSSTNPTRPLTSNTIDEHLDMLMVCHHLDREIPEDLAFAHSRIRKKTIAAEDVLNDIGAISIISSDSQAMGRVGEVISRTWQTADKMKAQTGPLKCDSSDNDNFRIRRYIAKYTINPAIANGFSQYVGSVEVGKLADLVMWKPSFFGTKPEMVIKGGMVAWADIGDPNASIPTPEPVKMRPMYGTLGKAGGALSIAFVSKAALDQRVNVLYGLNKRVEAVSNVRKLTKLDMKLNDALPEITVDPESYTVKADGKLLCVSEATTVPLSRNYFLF

Molecule	IC50
Cn1c(O)c(C(c2ccc(C=O)cc2)c2c(O)n(C)c(=O)n(C)c2=O)c(=O)n(C)c1=O [Compound 4a, 4-(bis(6-Hydroxy-1,3-dimethyl-2,4-dioxo-1,2,3,4-tetrahydropyrimidin-5-yl)methyl)benzaldehyde diethylaminium salt]	39.3 ± 0.36 µM
Cc1cccc(C(c2c(O)n(C)c(=O)n(C)c2=O)c2c(O)n(C)c(=O)n(C)c2=O)c1 [Compound 4b, 5,5′-(3-Tolylmethylene)bis(1,3-dimethylpyrimidine-2,4,6(1H,3H,5H)-trione) diethylaminium salt]	34.4 ± 1.57 µM
Cn1c(O)c(C(c2ccc([N+](=O)[O-])cc2)c2c(O)n(C)c(=O)n(C)c2=O)c(=O)n(C)c1=O [Compound 4c, 5,5′-((4-Nitrophenyl)methylene)bis(1,3-dimethylpyrimidine-2,4,6(1H,3H,5H)-trione)diethylaminium salt]	54.2 ± 0.47 µM
COc1ccc(C(c2c(O)n(C)c(=O)n(C)c2=O)c2c(O)n(C)c(=O)n(C)c2=O)cc1 [Compound 4d, 5,5′-((4-Methoxyphenyl)methylene)bis(1,3-dimethylpyrimidine-2,4,6(1H,3H,5H)-trione) diethylaminium salt]	31.6 ± 0.79 µM
Cn1c(O)c(C(c2cccc(Br)c2)c2c(O)n(C)c(=O)n(C)c2=O)c(=O)n(C)c1=O [Compound 4e, 5,5′-((3-Bromophenyl)methylene)bis(1,3-dimethylpyrimidine-2,4,6(1H,3H,5H)-trione) diethylaminium salt]	27.5 ± 0.12 µM
Cn1c(O)c(C(c2ccc(O)cc2)c2c(O)n(C)c(=O)n(C)c2=O)c(=O)n(C)c1=O [Compound 4f, 5,5′-((4-hydroxyphenyl)methylene)bis(6-hydroxy-1,3-dimethylpyrimidine-2,4(1H,3H)-dione) diethylaminium salt]	54.2 ± 0.83 µM
Cc1ccc(C(c2c(O)n(C)c(=O)n(C)c2=O)c2c(O)n(C)c(=O)n(C)c2=O)cc1 [Compound 4g, 5,5′-(p-Tolylmethylene)bis(1,3-dimethylpyrimidine-2,4,6(1H,3H,5H)-trione) diethylaminium salt]	28.5 ± 0.41 µM
Cn1c(O)c(C(c2ccc3ccccc3c2)c2c(O)n(C)c(=O)n(C)c2=O)c(=O)n(C)c1=O [Compound 4h, 5,5′-(Naphthalen-2-ylmethylene)bis(1,3-dimethylpyrimidine-2,4,6(1H,3H,5H)-trione) diethylaminium salt]	40.3 ± 0.32 µM
Cc1ccc(C(c2c(O)[nH]c(=O)[nH]c2=O)c2c(O)[nH]c(=O)[nH]c2=O)cc1 [Compound 4i, 5,5′-(p-Tolylmethylene)bis(6-hydroxypyrimidine-2,4(1H,3H)-dione) diethylaminium salt]	17.6 ± 0.23 µM
O=c1[nH]c(O)c(C(c2ccc(Cl)cc2)c2c(O)[nH]c(=O)[nH]c2=O)c(=O)[nH]1 [Compound 4j, 5,5′-((4-Chlorophenyl)methylene)bis(6-hydroxypyrimidine-2,4(1H,3H)-dione) diethylaminium salt]	22.3 ± 0.73 µM
COc1ccc(C(c2c(O)[nH]c(=O)[nH]c2=O)c2c(O)[nH]c(=O)[nH]c2=O)cc1 [Compound 4k, 5,5′-((4-Methoxyphenyl)methylene)bis(6-hydroxypyrimidine-2,4(1H,3H)-dione) diethylaminium salt]	25.8 ± 0.23 µM
O=c1[nH]c(O)c(C(c2ccc3ccccc3c2)c2c(O)[nH]c(=O)[nH]c2=O)c(=O)[nH]1 [Compound 4l, 5,5′-(Naphthalen-2-ylmethylene)bis(6-hydroxypyrimidine-2,4(1H,3H)-dione) diethylaminium salt]	22.7 ± 0.2 µM
Cn1c(O)c(C(C2=C(O)CC(C)(C)CC2=O)c2ccccc2)c(=O)n(C)c1=O (centres unmarked) [Compound 4m, 5-((2-Hydroxy-4,4-dimethyl-6-oxocyclohex-1-en-1-yl)(phenyl)methyl)-1,3-dimethyl-2,6-dioxo-1,2,3,6-tetrahydropyrimidin-4-olate diethylaminium salt]	39.3 ± 0.79 µM
Cc1ccc(C(C2=C(O)CC(C)(C)CC2=O)c2c(O)n(C)c(=O)n(C)c2=O)cc1 (centres unmarked) [Compound 4n, 5-((2-Hydroxy-4,4-dimethyl-6-oxocyclohex-1-en-1-yl)(p-tolyl)methyl)-1,3-dimethyl-2,6-dioxo-1,2,3,6-tetrahydropyrimidin-4-olate diethylaminium salt]	41.2 ± 0.58 µM
COc1ccc(C(C2=C(O)CC(C)(C)CC2=O)c2c(O)n(C)c(=O)n(C)c2=O)cc1 (centres unmarked) [Compound 4o, 5-((2-Hydroxy-4,4-dimethyl-6-oxocyclohex-1-en-1-yl)(4-methoxyphenyl)methyl)-1,3-dimethyl-2,6-dioxo-1,2,3,6-tetrahydropyrimidin-4-olate diethylaminium salt]	83 ± 0.66 µM
Cn1c(O)c(C(C2=C(O)CC(C)(C)CC2=O)c2ccc(Cl)cc2)c(=O)n(C)c1=O (centres unmarked) [Compound 4p, 5-((4-Chlorophenyl)(2-hydroxy-4,4-dimethyl-6-oxocyclohex-1-en-1-yl)methyl)-1,3-dimethyl-2,6-dioxo-1,2,3,6-tetrahydropyrimidin-4-olate diethylaminium salt]	39.7 ± 0.7 µM
Cn1c(O)c(C(C2=C(O)CC(C)(C)CC2=O)c2ccc(Br)cc2)c(=O)n(C)c1=O (centres unmarked) [Compound 4q, 5-((4-Bromophenyl)(2-hydroxy-4,4-dimethyl-6-oxocyclohex-1-en-1-yl)methyl)-1,3-dimethyl-2,6-dioxo-1,2,3,6-tetrahydropyrimidin-4-olate diethylaminium salt]	24.6 ± 0.42 µM
Cn1c(O)c(C(C2=C(O)CC(C)(C)CC2=O)c2cccc(Br)c2)c(=O)n(C)c1=O (centres unmarked) [Compound 4r, 5-((3-Bromophenyl)(2-hydroxy-4,4-dimethyl-6-oxocyclohex-1-en-1-yl)methyl)-1,3-dimethyl-2,6-dioxo-1,2,3,6-tetrahydropyrimidin-4-olate diethylaminium salt]	27.5 ± 0.19 µM
Cn1c(O)c(C(C2=C(O)CC(C)(C)CC2=O)c2ccccc2[N+](=O)[O-])c(=O)n(C)c1=O (centres unmarked) [Compound 4s, 5-((2-Hydroxy-4,4-dimethyl-6-oxocyclohex-1-en-1-yl)(1-nitrophenyl)methyl)-1,3-dimethyl-2,6-dioxo-1,2,3,6-tetrahydropyrimidin-4-olate diethylaminium salt]	110 ± 1.1 µM
CN(C)c1ccc(C(C2=C(O)CC(C)(C)CC2=O)c2c(O)n(C)c(=O)n(C)c2=O)cc1 (centres unmarked) [Compound 4t, 5-((2-Hydroxy-4,4-dimethyl-6-oxocyclohex-1-en-1-yl)(4-(dimethylamino)phenyl)methyl)-1,3-dimethyl-2,6-dioxo-1,2,3,6-tetrahydropyrimidin-4-olate diethylaminium salt]	142.1 ± 0.64 µM
Cn1c(O)c(C(C2=C(O)CC(C)(C)CC2=O)c2ccc(O)cc2)c(=O)n(C)c1=O (centres unmarked) [Compound 4v, 5-((2-Hydroxy-4,4-dimethyl-6-oxocyclohex-1-en-1-yl)(4-hydroxyphenyl)methyl)-1,3-dimethyl-2,6-dioxo-1,2,3,6-tetrahydropyrimidin-4-olate diethylaminium salt]	52.2 ± 1.26 µM
Cn1c(O)c(C(C2=C(O)CC(C)(C)CC2=O)c2ccc(Cl)cc2Cl)c(=O)n(C)c1=O (centres unmarked) [Compound 4w, 5-((2,4-Dichlorophenyl)(2-hydroxy-4,4-dimethyl-6-oxocyclohex-1-en-1-yl)methyl)-1,3-dimethyl-2,6-dioxo-1,2,3,6-tetrahydropyrimidin-4-olate diethylaminium salt]	59.4 ± 0.98 µM
Cn1c(O)c(C(C2=C(O)CC(C)(C)CC2=O)c2ccc(C=O)cc2)c(=O)n(C)c1=O (centres unmarked) [Compound 4x, 4-((6-hydroxy-1,3-dimethyl-2,4-dioxo-1,2,3,4-tetrahydropyrimidin-5-yl)(2-hydroxy-4,4-dimethyl-6-oxocyclohex-1-en-1-yl)methyl)benzaldehyde diethylaminium salt]	38.5 ± 0.28 µM
Cn1c(O)c(C(C2=C(O)CC(C)(C)CC2=O)c2c(Cl)cccc2Cl)c(=O)n(C)c1=O (centres unmarked) [Compound 4y, 5-((2,6-Dichlorophenyl)(2-hydroxy-4,4-dimethyl-6-oxocyclohex-1-en-1-yl)methyl)-1,3-dimethyl-2,6-dioxo-1,2,3,6-tetrahydropyrimidin-4-olate diethylaminium salt]	83.4 ± 1 µM
Cn1c(O)c(C(C2=C(O)CC(C)(C)CC2=O)c2ccc3ccccc3c2)c(=O)n(C)c1=O (centres unmarked) [Compound 4z, 5-((2-Hydroxy-4,4-dimethyl-6-oxocyclohex-1-en-1-yl)(naphthalen-2-yl)methyl)-1,3-dimethyl-2,6-dioxo-1,2,3,6-tetrahydropyrimidin-4-olate diethylaminium salt]	39.8 ± 1.38 µM
CC1(C)CC(=O)C(C(C2=C(O)CC(C)(C)CC2=O)c2ccccc2)=C(O)C1 [Compound 5a, 2-((2-Hydroxy-4,4-dimethyl-6-oxocyclohex-1-en-1-yl)(phenyl)methyl)-5,5-dimethyl-3-oxocyclohex-1-enolate diethylaminium salt]	74.5 ± 0.88 µM
CC1(C)CC(=O)C(C(C2=C(O)CC(C)(C)CC2=O)c2ccc(Cl)cc2)=C(O)C1 [Compound 5b, 2-((4-Chlorophenyl)(2-hydroxy-4,4-dimethyl-6-oxocyclohex-1-en-1-yl)methyl)-5,5-dimethyl-3-oxocyclohex-1-enolate diethylaminium salt]	29.7 ± 0.67 µM

Same assay, conditions: in vitro assay, authors' verbal grading

Molecule	urease inhibitory activity in words
Cc1ccc(C(c2c(O)[nH]c(=O)[nH]c2=O)c2c(O)[nH]c(=O)[nH]c2=O)cc1 [Compound 4i, 5,5′-(p-Tolylmethylene)bis(6-hydroxypyrimidine-2,4(1H,3H)-dione) diethylaminium salt]	most active
O=c1[nH]c(O)c(C(c2ccc(Cl)cc2)c2c(O)[nH]c(=O)[nH]c2=O)c(=O)[nH]1 [Compound 4j, 5,5′-((4-Chlorophenyl)methylene)bis(6-hydroxypyrimidine-2,4(1H,3H)-dione) diethylaminium salt]	active
Cn1c(O)c(C(C2=C(O)CC(C)(C)CC2=O)c2ccccc2[N+](=O)[O-])c(=O)n(C)c1=O (centres unmarked) [Compound 4s, 5-((2-Hydroxy-4,4-dimethyl-6-oxocyclohex-1-en-1-yl)(1-nitrophenyl)methyl)-1,3-dimethyl-2,6-dioxo-1,2,3,6-tetrahydropyrimidin-4-olate diethylaminium salt]	inactivity
CN(C)c1ccc(C(C2=C(O)CC(C)(C)CC2=O)c2c(O)n(C)c(=O)n(C)c2=O)cc1 (centres unmarked) [Compound 4t, 5-((2-Hydroxy-4,4-dimethyl-6-oxocyclohex-1-en-1-yl)(4-(dimethylamino)phenyl)methyl)-1,3-dimethyl-2,6-dioxo-1,2,3,6-tetrahydropyrimidin-4-olate diethylaminium salt]	least active; also recorded: inactivity

Same assay, conditions: jack bean urease, indophenol method, pH 6.8, 30 °C, 15 min incubation, triplicate; read-out: Urease inhibition IC50 ± SEM

Molecule	IC50
2-((2-Hydroxy-4,4-dimethyl-6-oxocyclohex-1-en-1-yl)(m-tolyl)methyl)-5,5-dimethyl-3-oxocyclohex-1-enolate diethylaminium salt [Compound 5d]	51.3 ± 0.45 µM
